The values below come from ChEMBL document CHEMBL5291721, “A preclinical secondary pharmacology resource illuminates target-adverse drug reaction associations of marketed drugs” (Nat Commun, 2023).

In assay [1] the target is Sodium-dependent noradrenaline transporter (Homo sapiens, UniProt P23975).
In assay [2] the target is Growth hormone secretagogue receptor type 1 (Homo sapiens, UniProt Q92847).
The target in assay [3] is D(3) dopamine receptor (Homo sapiens, UniProt P35462).
Assay [4] addresses T1, Cannabinoid receptor 1 (Homo sapiens, UniProt P21554).
Assay [5] has as its target Adenosine receptor A2a (Homo sapiens, UniProt P29274).
Assay [6] concerns the target T2, Alpha-2C adrenergic receptor (Homo sapiens, UniProt P18825).
T2 sequence (P18825 whole entry): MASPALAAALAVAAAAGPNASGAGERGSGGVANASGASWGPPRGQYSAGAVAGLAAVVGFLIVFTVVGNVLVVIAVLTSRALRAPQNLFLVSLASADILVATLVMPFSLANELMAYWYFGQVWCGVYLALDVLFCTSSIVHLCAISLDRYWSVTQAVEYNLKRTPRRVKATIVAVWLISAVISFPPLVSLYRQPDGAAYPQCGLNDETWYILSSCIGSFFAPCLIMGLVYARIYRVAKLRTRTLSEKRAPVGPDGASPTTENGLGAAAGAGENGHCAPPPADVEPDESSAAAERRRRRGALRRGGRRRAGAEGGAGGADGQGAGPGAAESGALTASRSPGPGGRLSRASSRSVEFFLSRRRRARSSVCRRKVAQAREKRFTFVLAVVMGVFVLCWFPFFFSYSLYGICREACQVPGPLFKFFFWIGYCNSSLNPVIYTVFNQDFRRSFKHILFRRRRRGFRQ
The class given is functional.

In assay [7] the target is Voltage-gated inwardly rectifying potassium channel KCNH2 (Homo sapiens, UniProt Q12809). The class given is functional. To be noted: read-out: AC50.
Voltage-gated inwardly rectifying potassium channel KCNH2, sequence (Q12809 whole entry): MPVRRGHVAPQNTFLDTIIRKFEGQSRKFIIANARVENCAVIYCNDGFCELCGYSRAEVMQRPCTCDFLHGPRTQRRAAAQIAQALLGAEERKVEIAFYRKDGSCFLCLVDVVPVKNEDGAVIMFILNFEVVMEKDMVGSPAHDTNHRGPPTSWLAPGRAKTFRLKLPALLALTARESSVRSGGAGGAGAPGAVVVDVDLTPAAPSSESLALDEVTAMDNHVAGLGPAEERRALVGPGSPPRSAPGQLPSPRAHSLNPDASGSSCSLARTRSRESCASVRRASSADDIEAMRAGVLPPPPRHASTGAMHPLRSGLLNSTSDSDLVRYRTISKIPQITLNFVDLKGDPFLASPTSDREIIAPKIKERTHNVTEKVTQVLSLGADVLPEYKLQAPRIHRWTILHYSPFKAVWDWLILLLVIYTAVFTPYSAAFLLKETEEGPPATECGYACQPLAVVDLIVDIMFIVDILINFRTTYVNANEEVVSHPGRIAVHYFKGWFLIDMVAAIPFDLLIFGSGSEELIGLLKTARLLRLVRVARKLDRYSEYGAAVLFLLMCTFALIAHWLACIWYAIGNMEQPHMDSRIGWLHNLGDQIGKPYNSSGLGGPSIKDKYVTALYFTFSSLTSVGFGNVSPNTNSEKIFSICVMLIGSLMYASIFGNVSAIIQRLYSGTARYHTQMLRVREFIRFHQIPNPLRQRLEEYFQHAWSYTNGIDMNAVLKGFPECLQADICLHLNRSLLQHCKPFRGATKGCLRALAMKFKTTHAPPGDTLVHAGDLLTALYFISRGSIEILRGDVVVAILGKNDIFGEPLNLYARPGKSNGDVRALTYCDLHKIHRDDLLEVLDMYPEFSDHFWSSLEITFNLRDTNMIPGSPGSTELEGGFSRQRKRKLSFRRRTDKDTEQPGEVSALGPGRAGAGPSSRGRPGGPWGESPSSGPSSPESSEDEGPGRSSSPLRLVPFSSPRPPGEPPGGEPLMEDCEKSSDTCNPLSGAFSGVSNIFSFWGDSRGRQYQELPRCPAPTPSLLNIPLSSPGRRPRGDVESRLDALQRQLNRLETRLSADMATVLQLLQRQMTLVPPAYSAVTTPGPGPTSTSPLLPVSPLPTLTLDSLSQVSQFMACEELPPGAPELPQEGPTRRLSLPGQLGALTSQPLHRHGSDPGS
The target in assay [8] is T3, Thromboxane A2 receptor (Homo sapiens, UniProt P21731).
T3 sequence (P21731 whole entry): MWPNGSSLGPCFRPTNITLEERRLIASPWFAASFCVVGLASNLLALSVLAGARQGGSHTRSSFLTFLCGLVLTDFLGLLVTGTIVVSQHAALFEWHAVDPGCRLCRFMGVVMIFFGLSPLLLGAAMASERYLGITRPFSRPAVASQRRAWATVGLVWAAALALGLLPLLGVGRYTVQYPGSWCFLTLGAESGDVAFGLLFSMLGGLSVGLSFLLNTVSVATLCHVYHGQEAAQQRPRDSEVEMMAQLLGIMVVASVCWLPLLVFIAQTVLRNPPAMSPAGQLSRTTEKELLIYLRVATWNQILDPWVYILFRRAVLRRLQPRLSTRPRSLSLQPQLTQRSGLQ

In assay [9] the target is T4, 5-hydroxytryptamine receptor 1A (Homo sapiens, UniProt P08908).
T4 sequence (P08908 whole entry): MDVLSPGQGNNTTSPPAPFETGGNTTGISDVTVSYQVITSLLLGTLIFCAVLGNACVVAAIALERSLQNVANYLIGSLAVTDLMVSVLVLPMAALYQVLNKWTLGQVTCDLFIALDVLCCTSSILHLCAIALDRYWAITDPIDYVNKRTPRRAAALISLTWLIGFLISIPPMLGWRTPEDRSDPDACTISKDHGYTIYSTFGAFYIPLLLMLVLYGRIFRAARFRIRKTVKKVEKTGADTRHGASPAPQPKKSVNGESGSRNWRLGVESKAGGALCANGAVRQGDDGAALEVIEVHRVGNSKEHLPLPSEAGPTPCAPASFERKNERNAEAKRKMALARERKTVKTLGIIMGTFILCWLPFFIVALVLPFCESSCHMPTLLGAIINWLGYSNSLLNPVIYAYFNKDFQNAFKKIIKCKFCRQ
Format: functional, cell-based.

For assay [10], the target named is 5-hydroxytryptamine receptor 2B (Homo sapiens, UniProt P41595). The class given is functional, cell-based.
5-hydroxytryptamine receptor 2B, sequence (P41595 whole entry): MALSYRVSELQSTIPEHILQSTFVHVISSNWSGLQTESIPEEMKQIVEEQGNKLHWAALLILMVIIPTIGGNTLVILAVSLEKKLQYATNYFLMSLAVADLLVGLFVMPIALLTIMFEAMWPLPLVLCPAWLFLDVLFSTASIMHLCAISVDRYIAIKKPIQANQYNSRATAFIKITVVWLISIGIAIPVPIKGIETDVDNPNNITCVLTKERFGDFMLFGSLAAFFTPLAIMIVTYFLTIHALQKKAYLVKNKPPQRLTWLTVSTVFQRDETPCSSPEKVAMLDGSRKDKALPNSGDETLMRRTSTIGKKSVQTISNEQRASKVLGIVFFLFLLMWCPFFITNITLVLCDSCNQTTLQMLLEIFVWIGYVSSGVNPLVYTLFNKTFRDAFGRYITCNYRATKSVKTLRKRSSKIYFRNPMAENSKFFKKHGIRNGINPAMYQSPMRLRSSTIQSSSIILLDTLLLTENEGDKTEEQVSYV
The target of assay [11] is T5, Muscarinic acetylcholine receptor M1 (Homo sapiens, UniProt P11229).
T5 sequence (P11229 whole entry): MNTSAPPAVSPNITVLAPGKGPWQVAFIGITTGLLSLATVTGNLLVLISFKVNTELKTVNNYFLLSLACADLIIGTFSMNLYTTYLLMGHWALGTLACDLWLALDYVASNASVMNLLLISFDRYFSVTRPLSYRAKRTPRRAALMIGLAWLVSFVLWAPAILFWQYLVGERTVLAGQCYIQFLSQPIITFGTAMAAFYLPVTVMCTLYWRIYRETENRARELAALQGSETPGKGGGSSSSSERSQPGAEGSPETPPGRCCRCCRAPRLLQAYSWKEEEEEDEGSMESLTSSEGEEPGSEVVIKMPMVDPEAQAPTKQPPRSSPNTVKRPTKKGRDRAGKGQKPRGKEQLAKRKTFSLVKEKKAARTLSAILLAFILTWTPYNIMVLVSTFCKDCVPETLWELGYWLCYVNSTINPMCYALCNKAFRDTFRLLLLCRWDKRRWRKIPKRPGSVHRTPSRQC
Format: functional.

Assay [12] addresses T1, Cannabinoid receptor 1. The class given is functional, cell-based.
Assay [13] addresses T6, Endothelin-1 receptor (Homo sapiens, UniProt P25101).
T6 sequence (P25101 whole entry): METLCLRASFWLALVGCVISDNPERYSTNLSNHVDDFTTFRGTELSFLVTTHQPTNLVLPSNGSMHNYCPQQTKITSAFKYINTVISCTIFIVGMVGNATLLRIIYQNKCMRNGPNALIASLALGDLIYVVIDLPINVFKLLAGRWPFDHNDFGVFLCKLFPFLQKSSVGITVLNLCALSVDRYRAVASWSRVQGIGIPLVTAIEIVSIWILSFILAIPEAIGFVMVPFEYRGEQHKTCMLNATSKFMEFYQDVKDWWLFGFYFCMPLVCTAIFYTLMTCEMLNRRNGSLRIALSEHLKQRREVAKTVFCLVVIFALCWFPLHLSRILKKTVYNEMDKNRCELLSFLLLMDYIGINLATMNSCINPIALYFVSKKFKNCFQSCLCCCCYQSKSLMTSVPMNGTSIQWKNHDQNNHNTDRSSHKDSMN

Molecules are shown by their SMILES.
Note: assay procedure not described here.

Growth hormone secretagogue receptor type 1, sequence (Q92847 whole entry): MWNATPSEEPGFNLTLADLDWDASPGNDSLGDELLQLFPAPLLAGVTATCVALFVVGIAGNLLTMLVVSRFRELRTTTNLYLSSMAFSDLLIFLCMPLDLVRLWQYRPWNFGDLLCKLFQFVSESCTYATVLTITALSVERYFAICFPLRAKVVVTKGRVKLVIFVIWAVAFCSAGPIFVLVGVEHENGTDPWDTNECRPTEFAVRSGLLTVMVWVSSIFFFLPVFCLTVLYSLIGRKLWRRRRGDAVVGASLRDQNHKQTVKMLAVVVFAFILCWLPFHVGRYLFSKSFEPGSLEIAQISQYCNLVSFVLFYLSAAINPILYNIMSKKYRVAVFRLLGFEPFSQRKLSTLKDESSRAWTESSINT
Adenosine receptor A2a, sequence (P29274 whole entry): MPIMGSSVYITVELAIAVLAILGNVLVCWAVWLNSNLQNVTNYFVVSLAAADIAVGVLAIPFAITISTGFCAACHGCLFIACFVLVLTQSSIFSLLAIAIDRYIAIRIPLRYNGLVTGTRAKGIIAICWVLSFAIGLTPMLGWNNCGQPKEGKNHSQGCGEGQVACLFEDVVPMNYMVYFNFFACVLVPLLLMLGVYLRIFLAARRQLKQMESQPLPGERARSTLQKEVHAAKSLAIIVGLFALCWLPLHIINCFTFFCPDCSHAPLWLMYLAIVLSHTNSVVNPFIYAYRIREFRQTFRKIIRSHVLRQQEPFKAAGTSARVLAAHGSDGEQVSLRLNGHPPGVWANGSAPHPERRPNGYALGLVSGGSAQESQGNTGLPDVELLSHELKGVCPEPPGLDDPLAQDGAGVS
T1 sequence (P21554 whole entry): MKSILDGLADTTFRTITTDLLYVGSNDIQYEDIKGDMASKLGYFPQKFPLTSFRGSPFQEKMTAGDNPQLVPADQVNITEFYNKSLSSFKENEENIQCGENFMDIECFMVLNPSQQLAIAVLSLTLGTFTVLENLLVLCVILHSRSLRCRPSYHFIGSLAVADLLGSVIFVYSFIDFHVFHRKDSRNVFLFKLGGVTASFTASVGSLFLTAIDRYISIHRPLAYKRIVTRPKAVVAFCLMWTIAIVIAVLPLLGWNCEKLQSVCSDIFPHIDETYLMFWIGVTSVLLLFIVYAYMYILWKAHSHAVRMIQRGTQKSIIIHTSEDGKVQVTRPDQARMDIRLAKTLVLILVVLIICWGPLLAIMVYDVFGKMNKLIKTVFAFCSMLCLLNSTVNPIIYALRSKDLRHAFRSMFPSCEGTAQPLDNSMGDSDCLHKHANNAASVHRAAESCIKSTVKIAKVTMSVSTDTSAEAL
D(3) dopamine receptor, sequence (P35462 whole entry): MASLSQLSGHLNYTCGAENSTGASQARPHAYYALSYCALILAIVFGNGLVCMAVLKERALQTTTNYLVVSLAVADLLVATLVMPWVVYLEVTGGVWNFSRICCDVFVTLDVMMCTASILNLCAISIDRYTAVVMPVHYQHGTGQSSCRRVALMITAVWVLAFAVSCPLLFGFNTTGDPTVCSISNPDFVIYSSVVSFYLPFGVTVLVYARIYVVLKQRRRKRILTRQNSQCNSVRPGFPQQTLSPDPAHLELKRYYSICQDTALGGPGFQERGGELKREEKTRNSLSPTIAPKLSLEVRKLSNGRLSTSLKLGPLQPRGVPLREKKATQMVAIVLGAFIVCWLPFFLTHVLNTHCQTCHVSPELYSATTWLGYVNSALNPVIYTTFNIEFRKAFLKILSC
Sodium-dependent noradrenaline transporter, sequence (P23975 whole entry): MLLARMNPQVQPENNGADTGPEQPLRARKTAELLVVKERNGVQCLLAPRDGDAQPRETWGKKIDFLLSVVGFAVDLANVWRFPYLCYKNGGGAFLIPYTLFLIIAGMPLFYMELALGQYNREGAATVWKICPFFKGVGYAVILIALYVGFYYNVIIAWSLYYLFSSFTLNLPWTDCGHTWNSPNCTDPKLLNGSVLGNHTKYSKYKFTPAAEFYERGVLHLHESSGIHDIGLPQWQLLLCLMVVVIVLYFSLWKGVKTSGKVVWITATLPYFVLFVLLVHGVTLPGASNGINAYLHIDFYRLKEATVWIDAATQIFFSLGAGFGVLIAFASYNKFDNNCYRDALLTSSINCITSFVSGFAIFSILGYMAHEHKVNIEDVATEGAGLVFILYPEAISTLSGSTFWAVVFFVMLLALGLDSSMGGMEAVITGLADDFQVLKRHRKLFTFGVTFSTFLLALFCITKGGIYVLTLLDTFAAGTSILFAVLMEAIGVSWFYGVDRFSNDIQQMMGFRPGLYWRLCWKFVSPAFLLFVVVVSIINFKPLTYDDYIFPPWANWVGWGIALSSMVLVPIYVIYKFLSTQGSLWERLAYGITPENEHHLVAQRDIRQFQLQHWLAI

`C[C@](N)(Cc1ccc(O)c(O)c1)C(=O)O` [METHYLDOPA]: the concentration at half-maximal activity (AC50) in assay [1] is > 10 µM; in [2] it was > 10 µM; in assay [3] it was > 30 µM; in [4], > 10 µM; in assay [5], > 30 µM; in assay [6], > 10 µM. Further, the AC50 was > 30 µM in assay [7], > 10 µM in [8], > 10 µM in assay [9] and > 10 µM in assay [10].

For the molecule `O=C(NCCN1CCOCC1)c1ccc(Cl)cc1` [MOCLOBEMIDE], the AC50 in assay [1] is > 10 µM; in assay [2], > 10 µM; in assay [3], > 30 µM; in assay [4] it was > 10 µM; in assay [5] it was > 10 µM; in [6] it was > 10 µM. Moreover, the AC50 was > 30 µM in assay [7], > 10 µM in assay [8], > 10 µM in assay [9] and > 10 µM in assay [10].

For the molecule `C[C@]12CC[C@H]3[C@@H](CCC4=CC(=O)CC[C@@]43C)[C@@H]1CC[C@@H]2O` [TESTOSTERONE], the AC50 in assay [1] is > 10 µM; in [2] it was > 10 µM; in [3], > 30 µM; in [4] it was > 10 µM; in assay [5], > 10 µM; in assay [6], > 10 µM. The AC50 in assay [8], in assay [9] and in [10] was > 10 µM each time.

In the case of `Cc1ccc(S(=O)(=O)NC(=O)NN2CC3CCCC3C2)cc1` (stereo unspecified) [GLICLAZIDE], the AC50 was > 10 µM in assay [1]; > 10 µM in assay [2]; > 30 µM in [3]; > 10 µM in [4]; > 10 µM in [5]; > 30 µM in [6]. The AC50 is > 30 µM in [7], > 10 µM in assay [8], > 10 µM in [9] and > 10 µM in [10].

Take `CC(C)Cn1cnc2c(N)nc3ccccc3c21` [IMIQUIMOD]: the AC50 was > 30 µM in [1]; > 10 µM in assay [2]; > 30 µM in assay [3]; > 10 µM in assay [4]; 19.5 µM in assay [5]; > 10 µM in assay [6]. The AC50 in [7] is 28.3 µM; in [8], > 30 µM; in assay [9] it was > 10 µM; in assay [10], 19 µM.

For the molecule `C#C[C@]1(O)CC[C@H]2[C@@H]3CCC4=Cc5oncc5C[C@]4(C)[C@H]3CC[C@@]21C` [DANAZOL], the AC50 in assay [2] was > 10 µM; in assay [3] it was > 30 µM; in assay [4], > 10 µM; in [5] it was > 30 µM; in assay [6], > 10 µM; in [7], > 30 µM. Moreover, the AC50 in assay [8], in assay [9] and in assay [10] was > 10 µM throughout.

For `CC(C)(C)c1cc(C(C)(C)C)c(NC(=O)c2c[nH]c3ccccc3c2=O)cc1O` [IVACAFTOR], the AC50 in assay [1] was 6.5 µM; in assay [2], > 30 µM; in assay [3], > 30 µM; in [11], > 10 µM; in assay [4], > 10 µM; in [5] it was > 30 µM. Also, the AC50 in assay [6] was > 10 µM; in assay [7], > 30 µM; in assay [8], 22 µM; in assay [10], > 10 µM.

In the case of `NCC[C@H](O)C(=O)N[C@@H]1C[C@H](N)[C@@H](O[C@H]2O[C@H](CN)[C@@H](O)[C@H](O)[C@H]2O)[C@H](O)[C@H]1O[C@H]1O[C@H](CO)[C@@H](O)[C@H](N)[C@H]1O` [AMIKACIN], the AC50 is > 10 µM in assay [1]; > 10 µM in [2]; > 30 µM in [3]; > 10 µM in assay [4]; > 10 µM in [5]; > 10 µM in assay [6]. Moreover, the AC50 in [7] is > 30 µM; in assay [8], > 10 µM; in assay [9], > 10 µM; in assay [10] it was > 10 µM.

In the case of `COc1cc2c(N)nc(N3CCN(C(=O)OCC(C)(C)O)CC3)nc2c(OC)c1OC` [TRIMAZOSIN], the AC50 in assay [12], in assay [1], in [2], in assay [3], in [11] and in [13] was > 30 µM throughout. For the same molecule, the AC50 in assay [5] is > 30 µM; in [6] it was 13 µM; in assay [7], 17 µM; in assay [8] it was > 30 µM; in [9] it was > 30 µM; in [10], > 30 µM.

For `COC(=O)C1=C(C)NC(C)=C(C(=O)OC2CCCN(Cc3ccccc3)C2)C1c1cccc([N+](=O)[O-])c1` (stereo unspecified) [BENIDIPINE], the half-maximal activity concentration (AC50) in assay [12] is 16 µM; in assay [1], 13 µM; in assay [2] it was 26 µM; in [3], 16 µM; in [11], 18 µM; in [13] it was > 30 µM. The AC50 in assay [5] is > 30 µM; in [6], 27 µM; in assay [7], 2.01 µM; in assay [8], > 30 µM; in assay [9], > 30 µM; in assay [10], > 30 µM.

In the case of `CCOC(=O)[N-]c1cn(N2CCOCC2)n[o+]1` [MOLSIDOMINE], the AC50 in [12], in assay [1], in assay [2], in assay [3], in [11] and in assay [13] was > 30 µM in each case. Moreover, the AC50 in [5], in [6], in assay [7], in assay [8], in assay [9] and in [10] was > 30 µM throughout.

With `CCCCCCOc1ccccc1C(N)=O` [EXALAMIDE], the AC50 in assay [12], in assay [1], in assay [2], in [3], in assay [11] and in assay [13] was > 30 µM each time. Moreover, the AC50 in assay [5], in [6], in [7], in [8], in assay [9] and in [10] was > 30 µM in each case.

What is called AC50 is the concentration at which the activity in the assay is half-maximal.
